Data published in PMC4977651, “Molecular features of biguanides required for targeting of mitochondrial respiratory complex I and activation of AMP-kinase” (BMC Biology, 2016).
“And” between values parts separate entries of the source, which are not always exact repeats. Equal entries are not always repeated. Where two headings read alike, the source gives them in different places.

Key:
[1] = tested on: bovine mitochondrial membranes (complexes II-III-IV); assay: Succinate:O2 oxidoreduction (complexes II-III-IV, complex II assay) by bovine mitochondrial membranes; type: biochemical, Bos taurus; settings: biguanide concentrations set to the IC50 values for NADH:O2 on bovine membranes; control = 100.00; n = 3
Method: (§1) Assays were performed at 32 °C in a SpectraMax 96-well plate reader. NADH:decylubiquinone oxidoreduction by complex I at 0.5 μg mL^−1 was measured in 20 mM Tris-HCl (pH 7.2), 0.15 % soy bean asolectin (Avanti Polar Lipids), and 0.15 % 3-((3-cholamidopropyl)dimethylammonium)-1-propanesulfonate (CHAPS, Merck Chemicals Ltd), with 200 μM decylubiquinone and 200 μM NADH, and monitored using ε340–380(NADH) = 4.81 mM^−1 cm^−1 [23]. Catalysis was initiated by addition of NADH and maximal rates determined by linear regression. NADH:O2 oxidoreduction by membranes was measured similarly but using 5 μg mL^−1 membranes in 10 mM Tris-HCl (pH 7.4) and 250 mM sucrose using 200 μM NADH and supplemented with 0.15 mM horse heart cytochrome c (Sigma-Aldrich Ltd.). Succinate:O2 oxidoreduction was measured using 40 μg mL^−1 membranes in 5 mM succinate in 10 mM Tris-HCl (pH 7.4) as described previously. Control experiments included NaCl (to match the ionic strength) or DMSO, as appropriate.

mouse liver mitochondria = assay: ADP-stimulated rotenone-sensitive OCR in isolated mouse liver mitochondria; type: biochemical; parameters: rotenone sensitive OCR after ADP stimulation, individual replicates / rotenone sensitive OCR after ADP stimulation, average: unit not given here; settings: for rotenone sensitive OCR after ADP stimulation, % of control, average / rotenone sensitive OCR after ADP stimulation, average: average of replicates; for rotenone sensitive OCR after ADP stimulation, % of control, individual replicates / rotenone sensitive OCR after ADP stimulation, individual replicates: replicate 1-5
Method: (§2) Complex I and mitochondrial membranes were prepared from Bos taurus (bovine) heart. Intact mitochondria were isolated from rat liver and mouse heart and liver. Membranes were prepared from mouse heart mitochondria by 5 s bursts of sonication at 4 °C and collected by centrifugation (75,000 × g, 1 h).
(§3) Isolated mitochondria were monitored using a Seahorse XF96 extracellular flux analyzer at 32 °C. Mouse heart mitochondria, and mouse and rat liver mitochondria were plated into XF96 plates at 4 and 16–20 μg per well, respectively, in 220 mM mannitol, 70 mM sucrose, 10 mM KH2PO4, 5 mM MgCl2, 1 mM EGTA, 0.2 % fatty acid-free BSA, and 2 mM HEPES (pH 7.4 at 37 °C) with 10 mM glutamate and 10 mM malate and adhered by centrifugation (2000 × g, 20 min, 4 °C). The medium was supplemented with a further 5 mM glutamate and 5 mM malate and the mitochondria incubated for 15 min. Then two baseline readings were taken before the biguanides were added at IC50/5. Biguanides were allowed to accumulate for 15–20 min before respiration was […] by the addition of 4 mM ADP. Rotenone (2 μM) was added at the end of the experiment. Data from wells with failed port injections were excluded from the analyses. The RCR values (state III versus state IV respiration) were 3.4, 4.8, and 4.6 for mouse heart, rat liver, and mouse liver, respectively.

[2] = tested on: acetyl-coA carboxylase (phospho-Ser79); assay: AMPK activation, western blot of phospho-acetyl-coA carboxylase in MDBK cells; type: cell-based, Bos taurus; settings: for ACC, average normalised to control: Averages of experiments 1-3, 18 hours; for p-ACC: band intensity
Method: MDBK cells were seeded at 1 × 10^6 cells per 6 cm dish in DMEM containing 10 % FBS. […] After 18 h cells were harvested by a rapid lysis procedure: cells were rinsed with PBS, then lysed using ice-cold buffer containing 50 mM HEPES, 1 mM EDTA, 10 % glycerol, 50 mM NaF, 5 mM sodium pyrophosphate, 1 % Triton-X100, 1 mM dithiothreitol (DTT), and a protease inhibitor cocktail (Roche). The cell lysate was centrifuged at 14,000 × g for 20 min at 4 °C and the protein concentration of the supernatant determined by bicinchoninic acid assay. The lysate was analyzed using Novex 3–12 % bis-Tris gels run in 3-(N-morpholino)propanesulfonic acid (MOPS) buffer (20 μg of protein per lane) followed by transfer to low fluorescence polyvinylidene fluoride membranes by wet transfer. Primary rabbit antibodies for AMPK-β (57C12), AMPK-α (phospho-Thr172) (40H9), and acetyl-coA carboxylase (phospho-Ser79) (Cell Signaling Technology) were incubated overnight with the membrane (1:1000 dilution) in Odyssey blocking buffer at 4 °C. A fluorescent secondary antibody was used (IRDYE800CW from LI-COR Biosciences, 1:20,000 dilution) with a LI-COR Odyssey imaging system.

rat liver mitochondria = assay: ADP-stimulated rotenone-sensitive OCR in isolated rat liver mitochondria; type: biochemical; parameters: rotenone sensitive OCR after ADP stimulation, individual replicates / rotenone sensitive OCR after ADP stimulation, average: unit not given here; settings: for rotenone sensitive OCR after ADP stimulation, % of control, average / rotenone sensitive OCR after ADP stimulation, average: average of replicates; for rotenone sensitive OCR after ADP stimulation, % of control, individual replicates / rotenone sensitive OCR after ADP stimulation, individual replicates: replicate 1-5
Method: as §2, §3

[3] = target: bovine heart mitochondrial membranes (complex I) (Bos taurus, UniProt P03887+P03898+P17694+P42026); assay: NADH:O2 oxidoreduction by bovine heart mitochondrial membranes (complexes I-III-IV); type: biochemical
Method: as §2, §1
Experimental values are reported as mean averages ± standard deviation (SD) of technical replicates for large sample sizes and mean averages ± standard error of the mean (SEM) of technical replicates for small sample sizes. Data were analyzed by the unpaired two-tailed Student’s t test. IC50 values were determined using the standard dose-effect relationship (activity (%) = 100 × IC50 / (IC50 + [inhibitor]^m) with the Hill Slope (m) set to unity for purified complex I) and are reported with 95 % confidence intervals.

[4] = log of concentration in mM; sample given as Bovine heart mitochondrial membranes; Prism variable slope fit, Bottom 0, Top 100
[5] = sample given as Bovine heart mitochondrial membranes; Prism variable slope fit, Bottom 0, Top 100

Chain of bovine heart mitochondrial membranes (complex I) (P42026 38-216): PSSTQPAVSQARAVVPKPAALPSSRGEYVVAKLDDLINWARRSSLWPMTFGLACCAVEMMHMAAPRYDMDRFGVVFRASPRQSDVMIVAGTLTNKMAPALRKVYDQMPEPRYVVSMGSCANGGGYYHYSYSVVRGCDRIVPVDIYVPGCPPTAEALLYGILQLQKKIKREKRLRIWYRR
Chain of bovine heart mitochondrial membranes (complex I) (P17694 34-463): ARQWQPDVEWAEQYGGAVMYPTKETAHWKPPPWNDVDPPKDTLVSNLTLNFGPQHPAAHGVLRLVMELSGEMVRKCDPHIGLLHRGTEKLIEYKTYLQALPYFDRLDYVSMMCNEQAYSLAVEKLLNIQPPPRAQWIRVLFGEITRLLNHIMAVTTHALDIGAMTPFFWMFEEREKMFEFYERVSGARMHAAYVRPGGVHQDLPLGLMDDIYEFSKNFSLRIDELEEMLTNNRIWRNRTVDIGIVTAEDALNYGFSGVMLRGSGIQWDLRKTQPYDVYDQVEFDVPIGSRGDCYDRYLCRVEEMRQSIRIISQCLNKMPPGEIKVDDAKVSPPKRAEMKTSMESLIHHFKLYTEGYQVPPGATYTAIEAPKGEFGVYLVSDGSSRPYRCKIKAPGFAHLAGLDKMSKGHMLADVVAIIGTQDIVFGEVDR
Chain of bovine heart mitochondrial membranes (complex I) (P03887 whole entry): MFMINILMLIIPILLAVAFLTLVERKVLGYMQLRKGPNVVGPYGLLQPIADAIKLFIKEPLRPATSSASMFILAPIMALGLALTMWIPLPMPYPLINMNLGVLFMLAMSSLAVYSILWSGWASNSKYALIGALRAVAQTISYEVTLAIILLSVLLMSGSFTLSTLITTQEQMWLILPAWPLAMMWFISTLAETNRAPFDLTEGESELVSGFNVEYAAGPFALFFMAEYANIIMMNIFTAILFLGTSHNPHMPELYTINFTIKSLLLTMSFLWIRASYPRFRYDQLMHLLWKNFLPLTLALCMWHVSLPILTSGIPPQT
Chain of bovine heart mitochondrial membranes (complex I) (P03898 whole entry): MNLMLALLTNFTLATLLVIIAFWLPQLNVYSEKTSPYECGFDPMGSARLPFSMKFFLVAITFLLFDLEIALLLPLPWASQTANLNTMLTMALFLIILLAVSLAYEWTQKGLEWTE

| SMILES | Complex II assay (succinate:O2 oxidoreduction), average [1] | rotenone sensitive OCR after ADP stimulation, % of control, average (mouse liver mitochondria) | rotenone sensitive OCR after ADP stimulation, average (mouse liver mitochondria) | rotenone sensitive OCR after ADP stimulation, % of control, individual replicates (mouse liver mitochondria) | rotenone sensitive OCR after ADP stimulation, individual replicates (mouse liver mitochondria) | ACC, average normalised to control [2] | p-ACC / AMPK beta ([2]; Experiment 1, 18 hours) | p-ACC / AMPK beta normalised to control ([2]; Experiment 1, 18 hours) | p-ACC ([2]; Experiment 1, 18 hours) | p-ACC / AMPK beta ([2]; Experiment 2, 18 hours) | p-ACC / AMPK beta normalised to control ([2]; Experiment 2, 18 hours) | p-ACC ([2]; Experiment 2, 18 hours) | p-ACC / AMPK beta ([2]; Experiment 3, 18 hours) | p-ACC / AMPK beta normalised to control ([2]; Experiment 3, 18 hours) | p-ACC ([2]; Experiment 3, 18 hours) | rotenone sensitive OCR after ADP stimulation, % of control, average (rat liver mitochondria) | rotenone sensitive OCR after ADP stimulation, average (rat liver mitochondria) | rotenone sensitive OCR after ADP stimulation, % of control, individual replicates (rat liver mitochondria) | rotenone sensitive OCR after ADP stimulation, individual replicates (rat liver mitochondria) | LogIC50 (best fit value) [3, 4] | also measured |
| --- | --- | --- | --- | --- | --- | --- | --- | --- | --- | --- | --- | --- | --- | --- | --- | --- | --- | --- | --- | --- | --- |
| N=C(N)NC(N)=Nc1ccccc1 [compound 2, phenyl biguanide] | 92.05 | 78.67 % of control | 27.30 | 80.64 % of control and 78.05 % of control and 77.34 % of control | 27.98 and 27.08 and 26.83 | 1.20 | 0.25 | 1.30 | 118 | 0.22 | 1.36 | 75.8 | 0.28 | 0.93 | 59.9 | 93.19 % of control | 25.55 | 95.39 % of control and 93.60 % of control and 90.74 % of control and 93.05 % of control | 26.15 and 25.66 and 24.88 and 25.51 | -0.3757 | IC50 ([3]; read-out: IC50 (best fit value); sample given as Bovine heart mitochondrial membranes; Prism log(inhibitor) vs. response variable slope fit (four parameters), Bottom 0, Top 100): 421 µM; HillSlope (best fit value) [3, 5]: -0.7595 |
| CC(C)N=C(N)N=C(N)NC(C)C [compound 5, N-(propan-2-yl)-1-3-(propan-2-yl)carbamimidamidomethanimidamide] | 100.71 | 82.72 % of control | 28.70 | 96.11 % of control and 71.97 % of control and 77.63 % of control and 85.15 % of control | 33.35 and 24.97 and 26.94 and 29.54 | 1.36 | 0.27 | 1.41 | 131 | 0.23 | 1.44 | 70.3 | 0.36 | 1.22 | 64.6 | 92.45 % of control | 25.35 | 107.71 % of control and 88.69 % of control and 80.94 % of control | 29.53 and 24.32 and 22.19 | -0.4916 | remaining activity at 25 µM ([3]; bovine heart mitochondrial membranes; inhibitor 0.025 mM; read-out: average % (rate, % of no-inhibitor control)): 88.2%; remaining activity at 50 µM ([3]; bovine heart mitochondrial membranes; inhibitor 0.05 mM; read-out: average % (rate, % of no-inhibitor control)): 80.7%; remaining activity at 120 µM ([3]; bovine heart mitochondrial membranes; inhibitor 0.12 mM; read-out: average % (rate, % of no-inhibitor control)): 67.1%; remaining activity at 250 µM ([3]; bovine heart mitochondrial membranes; inhibitor 0.25 mM; read-out: average % (rate, % of no-inhibitor control)): 53.5%; remaining activity at 500 µM ([3]; bovine heart mitochondrial membranes; inhibitor 0.50 mM; read-out: average % (rate, % of no-inhibitor control)): 42.4%; remaining activity at 1000 µM ([3]; bovine heart mitochondrial membranes; inhibitor 1.00 mM; read-out: average % (rate, % of no-inhibitor control)): 30.7%; remaining activity at 2000 µM ([3]; bovine heart mitochondrial membranes; inhibitor 2.00 mM; read-out: average % (rate, % of no-inhibitor control)): 19.2%; IC50 ([3]; sample given as Bovine heart mitochondrial membranes; Prism log(inhibitor) vs. response variable slope fit (four parameters), Bottom 0, Top 100; read-out: IC50 (best fit value)): 322 µM; HillSlope (best fit value) [3, 5]: -0.7631 |
